Measured values from US6897028B1, “Identification of molecular targets” (Florida State University, priority 1997, dated 2005).

Assays:
human LIF = human LIF (Homo sapiens, UniProt P15018); test: ELISA binding of biotinylated dioxin to LIF; conditions: species not given
Procedure: The applicants utilized the same biotinylated dioxin as Petrenko in an ELISA assay for binding to LIF, to several mutants of the LIF protein changed in the EPFP homology domain (residues 50-53), to anti-dioxin antibodies as a positive control, and to ciliary neurotrophic factor (CNTF) (structurally similar to LIF but lacking the SEQ. ID NO. 5 motif) as a negative control. […] to human and murine LIF with a KD of approximately 10-100 μM, indicating an affinity approximately 10,000 fold less than the anti-dioxin antibodies used as a positive control.

Bcl-2/GST fusion protein [1] = biological target: T1, Bcl-2/GST fusion protein (Homo sapiens, UniProt P10415); test: ELISA binding of Bcl-2/GST fusion protein to immobilized biotinylated taxane; conditions: confirmation of binding of Bcl-2 to taxol
T1 sequence (P10415 whole entry, the tested form may be a part): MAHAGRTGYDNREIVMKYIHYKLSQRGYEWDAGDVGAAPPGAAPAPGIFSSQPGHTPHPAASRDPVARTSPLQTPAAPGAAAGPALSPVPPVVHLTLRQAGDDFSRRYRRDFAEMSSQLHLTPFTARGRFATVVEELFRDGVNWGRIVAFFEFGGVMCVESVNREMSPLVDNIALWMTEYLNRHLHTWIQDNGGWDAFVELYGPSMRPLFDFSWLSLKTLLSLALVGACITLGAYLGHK
Text: ELISA binding assays were used to determine if the Bcl-2/GST fusion protein binds directly to immobilized biotinylated taxol. Anti-Bcl-2 antibodies were used to detect Bcl-2 binding. […] The x-axis is the log nM concentration of protein in solution (Bcl-2 or Bcl-XL); the y-axis is the uncorrected optical density at 490 nm. The insert is the chemical structure of the biotinylated taxol used in the selection of peptides.

[2] = system: 697 human acute leukemia pre-B cells; conditions: 697 cells; cited from earlier work
Bcl-2/GST fusion protein [3] = biological target: T1, Bcl-2/GST fusion protein; test: Circular dichroism spectroscopy of Bcl-2/GST with and without taxol; format: binding
Text: Each spectrum is the averaged result of five spectra and subtracted baselines with standard deviations as indicated. These differences are much larger than the error bars (standard deviations) in the measurements, and involve a change in both the shape of the curve (ratio of the 220/210 nm peaks) and the peak positions. The secondary structures calculated for the Bcl-2 fusion protein with and without taxol differ by approximately 4%, and appear to involve a change in a region of the molecule that is found in a beta-turn conformation. This corresponds to the type of secondary structure which is predicted for the HTPHP-containing portion of the Bcl-2 loop region (SEQ. ID No. 3). […] Homology between TAX2.29 and human Bcl-2 lies between positions 1 through 12 and residues 55 through 66 respectively, inferring a minimum drug/protein interaction of at least twelve amino acids.

GST = GST (Schistosoma japonicum, UniProt P08515); test: Circular dichroism control: purified GST with and without taxol; format: binding; conditions: GST alone
Sequence of GST (P08515 whole entry): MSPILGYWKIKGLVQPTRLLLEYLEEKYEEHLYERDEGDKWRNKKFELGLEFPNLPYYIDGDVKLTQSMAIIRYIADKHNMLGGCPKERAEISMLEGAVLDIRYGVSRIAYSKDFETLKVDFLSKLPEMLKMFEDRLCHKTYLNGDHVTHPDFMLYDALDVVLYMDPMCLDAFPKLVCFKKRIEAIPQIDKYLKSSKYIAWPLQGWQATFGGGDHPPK
Procedure: In a control experiment, taxol was added to purified GST from S. japonicum. […] The differences are far smaller than the error bars, and there is no change in the 220/210 nm ratio, nor is a peak shift observed. This means that were there any net structural change within the GST molecule alone, it would involve less than 0.5% of its total secondary structure. […] Furthermore, this binding has significant structural consequences for the Bcl-2 protein, involving approximately 15% to 20% of the loop residues.

Sequence of human LIF (P15018 23-202): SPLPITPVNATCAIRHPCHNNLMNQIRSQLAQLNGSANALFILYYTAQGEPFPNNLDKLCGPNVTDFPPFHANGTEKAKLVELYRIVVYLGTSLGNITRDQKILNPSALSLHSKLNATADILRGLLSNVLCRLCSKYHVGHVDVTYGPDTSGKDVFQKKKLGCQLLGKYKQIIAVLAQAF

| binding affinity in words (human LIF) | binding affinity in words (Bcl-2/GST fusion protein [1]) | difference in calculated secondary structure with and without taxol (Bcl-2/GST fusion protein [3]; CD, beta-turn region) | conformational change upon binding taxol (CD spectrum) (Bcl-2/GST fusion protein [3]; spectra with and without taxol) | CD spectra with and without taxol (GST) | net structural change as share of total secondary structure (GST) | SMILES | apoptosis [2] | phosphorylation of Bcl-2 [2] |
| --- | --- | --- | --- | --- | --- | --- | --- | --- |
| at least micromolar affinity | – | – | – | – | – | C1=COC=CO1 [dioxin] | – | – |
| – | micromolar affinity | approximately 4% | substantial conformational change | virtually identical | less than 0.5% | CC(=O)O[C@H]1C(=O)[C@@]2(C)[C@H]([C@H](OC(=O)c3ccccc3)[C@]3(O)C[C@H](OC(=O)[C@H](O)[C@@H](NC(=O)c4ccccc4)c4ccccc4)C(C)=C1C3(C)C)[C@]1(OC(C)=O)CO[C@@H]1C[C@@H]2O [taxol] | induces | induces |
| – | – | – | – | – | – | CC(=O)O[C@@]12CO[C@@H]1C[C@H](O)[C@@]1(C)C(=O)[C@H](O)C3=C(C)[C@@H](OC(=O)[C@H](O)[C@@H](NC(=O)OC(C)(C)C)c4ccccc4)C[C@@](O)([C@@H](OC(=O)c4ccccc4)[C@H]21)C3(C)C [taxotere] | induces | induces |
